Measured values taken from US3980707A, “Methylamino derivative of 2-ethylindandione-1,3 and the hydrochloride thereof” (priority 1973, dated 1976).
Where a name gives a salt, the structure may show the parent alone.

Columns and labels:
[1] = Solubility and hydrolysis in water; assay type: physicochemical; settings: hydrochlorides
[2] = system: seizures induced by an electroshock; assay: Anticonvulsive effect in electroshock (intraperitoneal); assay type: in vivo, white rats and white mice
Experimental: Anticonvulsive effect of Metindione in electroshock was studied on white rats and white mice on a comparison basis with the well known drug phenobarbital. Both preparations were administered by intraperitoneal injections. The results are summarized in Tabl. 1 (confidence limits are indicated in parentheses; P = 0.05).

[3] = system: electroshock; assay: Thirty-day electroshock tests (habituation); assay type: in vivo; settings: white mice
[4] = system: conditioned reflexes; assay: Influence on rate of development of conditioned reflexes (learning); assay type: in vivo, white mice; settings: for ET50 (medium time required for learning): confidence limits in parentheses, P=0.05
Source text: The influence of Metindione and Phenobarbital on learning has been studied on white mice.
(confidence limits are put in parentheses; P=0.05).

[5] = Extended every day administration / chronic toxicity; assay type: in vivo
[6] = Acute toxicity (LD50, Table 1); parameters: species or system white rats and white mice; settings: in vivo, ip; confidence limits in parentheses, P = 0.05; second ED50 column of Table 1
[7] = Anticonvulsive activity and toxicity, general statements; assay type: in vivo; settings: compared with the conventional anticonvulsants

CCC1(Nc2ccccc2)C(=O)c2ccccc2C1=O [2-aniline-2-ethylindandione-1,3 hydrochloride]
hydrolysis in water [1]: readily hydrolyzed in water

CCC1(NC)C(=O)c2ccccc2C1=O [Metindione, 2-methylamino-2-ethylindandione-1,3 hydrochloride]
ED50 ([2]; Rattus norvegicus, ip, electroshock, confidence limits in parentheses, P = 0.05): 3.6 mg/kg | Protective Index (in ratio of LD50 /ED50) ([2]; electroshock, i.p., confidence limits in parentheses, P = 0.05): 115 (89+149) | protective index higher than that of phenobarbital ([2]; in vivo): 14 times | anticonvulsive effect stronger than that of phenobarbital ([2]; seizures induced by an electroshock, relative to phenobarbital): ~4 times | necessity to increase initial dose / habit forming reaction [3]: no necessity to increase the initial dose | ET50 (medium time required for learning) ([4]; dose 1/2 of ED50 of anticonv. action): 2.4(2.1+2.6) day | ET50 (medium time required for learning) ([4]; dose 1 x ED50 of anticonv. action): 2.5(2.1+2.8) day | ET50 (medium time required for learning) ([4]; dose 2 x ED50 of anticonv. action): 2.0(1.7+2.3) day | ET50 (medium time required for learning) ([4]; dose 4 x ED50 of anticonv. action): 2.8(2.4+3.4) day | influence on rate of developing conditioned reflexes ([4]; mouse, in vivo): did not influence the rate of developing conditioned reflexes | toxic effect ([5]; extended every day administration, doses 15 times higher than the therapeutical average): no toxic effect | acute and chronic toxicity ([5]; in vivo): low acute and a low chronic toxicity | morphological internal organic changes ([5]; in vivo): does not cause any morphological internal organic changes | influence on normal development and growth of young animals ([5]; young animals): no adverse influence on normal development and growth of young animals | LD50 [6]: 415 mg/kg

CCC1(NC)C(=O)c2ccccc2C1=O [2-methylamino-2-ethylindandione-1,3 hydrochloride]
anticonvulsant index [7]: high anticonvulsant index
